In patent US20100125081A1, “NEW COMPOUNDS 574” (ASTRAZENECA AB, priority 2008, published 2010):

Molecular target: T1, human β-Secretase (Homo sapiens, UniProt P56817)
T1 construct: soluble part of the human β-Secretase (AA 1-AA 460); Fc domain of IgG1 (C); made in house
Assay: TR-FRET assay (β-secretase enzyme, sBACE-Fc)
Format: biochemical
Conditions: soluble human β-secretase (AA 1-460) Fc fusion, substrate (Europium)CEVNLDAEFK(Qsy7) 100 nM, pH 4.5; unit inferred, nM taken
Method: The β-secretase enzyme used in the TR-FRET is prepared as follows:
The cDNA for the soluble part of the human β-Secretase (AA 1-AA 460) was cloned using the ASP2-Fc10-1-IRES-GFP-neoK mammalian expression vector. The gene was fused to the Fc domain of IgG1 (affinity tag) and stably cloned into HEK 293 cells.
The enzyme (truncated form) was diluted to 6 μg/mL (stock 1.3 mg/mL) and the substrate (Europium)CEVNLDAEFK(Qsy7) to 200 nM (stock 120 μM) in reaction buffer (NaAcetate, chaps, triton x-100, EDTA pH4.5). The robotic systems Biomek FX and Velocity 11 were used for all liquid handling and the enzyme and substrate solutions were kept on ice until they were placed in the robotic system. Enzyme (9 μl) was added to the plate then 1 μl of compound in dimethylsulphoxide was added, mixed and pre-incubated for 10 minutes. Substrate (10 μl) was then added, mixed and the reaction proceeded for 15 minutes at room temperature. The reaction was stopped with the addition of Stop solution (7 μl, NaAcetate, pH 9). The fluorescence of the product was measured on a Victor II plate reader with an excitation wavelength of 340 nm and an emission wavelength of 615 nm. The assay was performed in a Costar 384 well round bottom, low volume, non-binding surface plate (Corning #3676). The final concentration of the enzyme was 2.7 μg/ml; the final concentration of substrate was 100 nM (Km of ˜250 nM). The dimethylsulphoxide control, instead of test compound, defined the 100% activity level and 0% activity was defined by wells lacking enzyme (replaced with reaction buffer).

T1 sequence (P56817 22-460): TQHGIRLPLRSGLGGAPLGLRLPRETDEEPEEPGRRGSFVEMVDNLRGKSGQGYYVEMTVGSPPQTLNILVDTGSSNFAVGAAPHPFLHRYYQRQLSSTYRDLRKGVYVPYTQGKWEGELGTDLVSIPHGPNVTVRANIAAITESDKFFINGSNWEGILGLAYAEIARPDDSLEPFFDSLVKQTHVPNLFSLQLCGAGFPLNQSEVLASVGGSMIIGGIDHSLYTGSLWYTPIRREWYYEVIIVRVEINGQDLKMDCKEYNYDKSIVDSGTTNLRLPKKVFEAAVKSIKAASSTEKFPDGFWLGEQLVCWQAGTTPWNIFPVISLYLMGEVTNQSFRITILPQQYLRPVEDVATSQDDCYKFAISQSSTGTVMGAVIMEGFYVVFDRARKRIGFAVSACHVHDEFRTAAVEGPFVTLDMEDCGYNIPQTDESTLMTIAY

Structure (SMILES)	IC50
Cc1cc(C2(c3cccc(-c4cncnc4)c3)N=C(N)c3ncccc32)cc(C)n1 (stereo not shown) [Example 4, 5-(2,6-Dimethylpyridin-4-yl)-5-(3-(pyrimidin-5-yl)phenyl)-5H-pyrrolo[3,4-b]pyridin-7-amine]	1800 nM
NC1=NC(c2cccc(-c3cncnc3)c2)(c2ccc(OC(F)F)c(C3CC3)c2)c2cccnc21 (stereo not shown) [Example 9, 5-(3-Cyclopropyl-4-(difluoromethoxy)phenyl)-5-(3-(pyrimidin-5-yl)phenyl)-5H-pyrrolo[3,4-b]pyridin-7-amine acetic acid]	33 nM
NC1=NC(c2cccc(-c3cncnc3)c2)(c2ccnc(C(F)(F)F)c2)c2cccnc21 (single isomer, unassigned) [25, Isomer 2]	176 nM

Further lines, results first:

IC50	Structure (SMILES)
204 nM	NC1=NC(c2cccc(-c3cncnc3)c2)(c2ccc(OC(F)F)c(F)c2)c2cccnc21 (stereo not shown) [Example 18, 5-(4-(Difluoromethoxy)-3-fluorophenyl)-5-(3-(pyrimidin-5-yl)phenyl)-5H-pyrrolo[3,4-b]pyridin-7-amine]
288 nM	COc1ccc(C2(c3cccc(-c4cnccn4)c3)N=C(N)c3ncccc32)cc1C(F)F (stereo not shown) [Example 23, 5-(3-(difluoromethyl)-4-methoxyphenyl)-5-(3-(pyrazin-2-yl)phenyl)-5H-pyrrolo[3,4-b]pyridin-7-amine]
1140 nM	NC1=NC(c2cccc(-c3cncnc3)c2)(c2ccnc(OC=C(F)F)c2)c2cccnc21 (stereo not shown) [Example 17, 5-(2-(2,2-Difluorovinyloxy)pyridin-4-yl)-5-(3-(pyrimidin-5-yl)phenyl)-5H-pyrrolo[3,4-b]pyridin-7-amine 0.2 acetic acid]
206 nM	COc1ccc(F)c(-c2cc(C3(c4ccnc(C(F)(F)F)c4)N=C(N)c4ncccc43)ccc2O)c1 (stereo not shown) [Example 37, 5-(7-Amino-5-(2-(trifluoromethyl)pyridin-4-yl)-5H-pyrrolo[3,4-b]pyridin-5-yl)-2′-fluoro-5′-methoxybiphenyl-2-ol]
